Test [1] concerns the target T1, Tyrosine-protein kinase Mer (Homo sapiens) (UniProt Q12866).
T1 sequence (whole entry): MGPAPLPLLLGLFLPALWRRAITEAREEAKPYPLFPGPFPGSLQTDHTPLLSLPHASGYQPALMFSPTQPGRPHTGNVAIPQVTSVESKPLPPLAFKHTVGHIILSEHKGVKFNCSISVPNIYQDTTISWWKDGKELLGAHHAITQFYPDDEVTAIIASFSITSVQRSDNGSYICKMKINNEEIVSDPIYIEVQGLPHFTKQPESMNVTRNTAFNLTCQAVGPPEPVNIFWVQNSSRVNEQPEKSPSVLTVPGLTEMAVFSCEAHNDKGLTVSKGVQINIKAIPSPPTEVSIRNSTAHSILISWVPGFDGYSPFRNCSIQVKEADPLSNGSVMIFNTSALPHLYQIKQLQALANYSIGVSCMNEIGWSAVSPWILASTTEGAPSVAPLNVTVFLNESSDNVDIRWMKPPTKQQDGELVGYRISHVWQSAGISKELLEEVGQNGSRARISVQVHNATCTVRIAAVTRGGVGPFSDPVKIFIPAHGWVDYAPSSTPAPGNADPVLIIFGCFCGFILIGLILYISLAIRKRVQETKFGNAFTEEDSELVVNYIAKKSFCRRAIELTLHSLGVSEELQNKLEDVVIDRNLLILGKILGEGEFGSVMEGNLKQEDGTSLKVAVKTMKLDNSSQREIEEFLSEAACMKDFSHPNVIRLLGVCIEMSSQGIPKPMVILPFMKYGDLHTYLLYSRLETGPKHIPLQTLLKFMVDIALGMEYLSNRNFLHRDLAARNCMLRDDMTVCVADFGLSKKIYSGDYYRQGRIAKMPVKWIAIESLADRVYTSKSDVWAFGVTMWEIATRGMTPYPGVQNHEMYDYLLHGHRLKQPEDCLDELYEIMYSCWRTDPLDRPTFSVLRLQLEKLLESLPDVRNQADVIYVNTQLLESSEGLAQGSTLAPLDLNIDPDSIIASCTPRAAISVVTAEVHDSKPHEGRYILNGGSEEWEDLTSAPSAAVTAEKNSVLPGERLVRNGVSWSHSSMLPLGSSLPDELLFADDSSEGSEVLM
The conditions noted are these: at 10 µM.

For test [2], the target named is T2, Serine/threonine-protein kinase TBK1 (Homo sapiens) (UniProt Q9UHD2).
T2 sequence (whole entry): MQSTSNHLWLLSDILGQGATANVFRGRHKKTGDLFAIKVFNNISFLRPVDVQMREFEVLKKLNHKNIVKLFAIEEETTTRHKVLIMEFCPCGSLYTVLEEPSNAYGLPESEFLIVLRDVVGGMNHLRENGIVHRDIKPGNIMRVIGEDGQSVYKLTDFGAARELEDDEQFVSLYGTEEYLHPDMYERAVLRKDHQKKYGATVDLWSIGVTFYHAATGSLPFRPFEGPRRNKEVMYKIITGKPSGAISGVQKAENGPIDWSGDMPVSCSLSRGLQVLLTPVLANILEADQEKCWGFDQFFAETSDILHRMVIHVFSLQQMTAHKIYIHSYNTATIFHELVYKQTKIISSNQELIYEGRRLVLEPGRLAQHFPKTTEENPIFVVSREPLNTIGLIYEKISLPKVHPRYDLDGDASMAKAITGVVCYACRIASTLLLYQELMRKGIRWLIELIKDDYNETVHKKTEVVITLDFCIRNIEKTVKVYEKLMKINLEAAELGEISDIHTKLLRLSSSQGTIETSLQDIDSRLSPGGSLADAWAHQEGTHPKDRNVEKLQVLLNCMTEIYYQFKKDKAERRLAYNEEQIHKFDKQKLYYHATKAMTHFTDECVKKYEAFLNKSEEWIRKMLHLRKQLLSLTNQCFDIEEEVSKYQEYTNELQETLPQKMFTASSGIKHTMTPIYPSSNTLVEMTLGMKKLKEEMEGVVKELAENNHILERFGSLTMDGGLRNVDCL
As to conditions: at 1 µM.

Molecules are shown by their SMILES. Values joined by “and” are separate entries in the source; they are usually repeats but may differ in a detail not shown here. Identical values can stand only once.

With `NS(=O)(=O)c1cccc(Nc2cc(-c3ccc(F)cc3)n[nH]2)c1`, the inhibition (commonly the drop in the measured response relative to a control, in per cent) is 0% in test [1]; 23% and 21% in test [2].
Turning to `FC(F)(F)c1cccc(Nc2nccc(-c3cnn4nc(-c5ccccc5)ccc34)n2)c1`, the inhibition was -2% in test [1]; 17% and 7% in test [2].
Consider `COc1cc(C=NNc2ncnc3c2cnn3Cc2ccccc2)ccc1O`, for which the inhibition in test [1] was 5%; in test [2], 9% and 14%.
Regarding `COc1ccc(-c2coc3ncnc(N)c23)cc1`, the inhibition is -3% in test [1]; -7% and -5% in test [2].
Consider `Cn1c(-c2nonc2N)nc2cnccc21`, for which the inhibition in test [1] was -9%; in test [2] it was -4% and -2%.
As for `Fc1ccc(-c2nc3n(c2-c2ccncc2)CCS3)cc1`, the inhibition was 73% in test [1]; -4% and 3% in test [2].
For `CS(=O)(=O)CCNCc1ccc(-c2ccc3ncnc(Nc4ccc(OCc5ccccc5)c(Br)c4)c3c2)o1`, the inhibition in test [1] was 14%; in test [2], 0% and 1%.
Consider `COc1cc2ncnc(Nc3ccc(C)c(O)c3)c2cc1OC`, for which the inhibition is -10% in test [1]; 3% and 1% in test [2].
Take `CS(=O)(=O)CCNCc1ccc(-c2ccc3ncnc(Nc4ccc(OCc5cccc(F)c5)c(C(F)(F)F)c4)c3c2)o1`: the inhibition is 50% in test [1]; 3% and 1% in test [2].
Consider `COc1ccc(-c2ccncc2)cc1C(N)=O`, for which the inhibition in test [1] is 3%; in test [2] it was 4% and 3%.
On to `COc1cc2ncn(-c3cc(OCc4ccccc4Cl)c(C(N)=O)s3)c2cc1OC`, for which the inhibition in test [1] was 83%; in test [2] it was 56% and 50%.
Take `COc1c(C(N)=O)cc(-c2ccc(Cl)cc2)cc1-c1ccc(S(N)(=O)=O)cc1`: the inhibition in test [1] is -6%; in test [2], 0% and 1%.
`NC(=O)c1sc(-n2cnc3ccccc32)cc1OCc1ccccc1Br`: the inhibition was 45% in test [1]; 0% and 3% in test [2].
As to `COC(=O)c1sc(-n2cnc3cc(OC)c(OC)cc32)cc1OCc1ccccc1C(F)(F)F`, the inhibition is -1% in test [1]; 37% and 39% in test [2].
For `COc1cccc(/C=N/Nc2ncnc3c2cnn3-c2cccc(OC)c2)c1`, the inhibition is -6% in test [1]; 2% and 1% in test [2].
In the case of `COc1cc(Nc2nccc(-c3cnn4ncccc34)n2)cc(OC)c1`, the inhibition was 5% in test [1]; 38% and 33% in test [2].
For the compound `c1ccc(-c2n[nH]cc2-c2ccnc(-c3ccc(OCCn4ccnc4)cc3)c2)nc1`, the inhibition is 0% in test [1]; -4% and -3% in test [2].
With `[O-][S+]1CCN(Cc2ccc(-c3ccc4ncnc(Nc5ccc(OCc6ccccc6)c(Cl)c5)c4c3)o2)CC1`, the inhibition in test [1] was -5%; in test [2] it was -4% and -6%.
For `CN1CCN(C(=O)c2ccc(NC(=O)Nc3ccc(N(C)c4ccnc(Nc5ccc(CS(C)(=O)=O)cc5)n4)cc3)cc2)CC1`, the inhibition is 0% in test [1]; 14% and 13% in test [2].
Turning to `NS(=O)(=O)c1cccc(-c2ccc3c(NC(=O)C4CC4)n[nH]c3c2)c1`, the inhibition is -7% in test [1]; 2% and 1% in test [2].
In the case of `COc1ccc2ncn(-c3cc(O[C@H](C)c4ccccc4C(F)(F)F)c(C(N)=O)s3)c2c1`, the inhibition is 3% in test [1]; -8% and -6% in test [2].
For the compound `CCCN1CCC(Oc2cc(Nc3nc(Nc4cccc(F)c4C(N)=O)c4cc[nH]c4n3)c(OC)cc2Cl)CC1`, the inhibition in test [1] was -6%; in test [2] it was 0% and -3%.
Consider `CCOc1ccc2c(-c3ccnc(Nc4cc(OC)cc(C(F)(F)F)c4)n3)cnn2n1`, for which the inhibition in test [1] is -5%; in test [2], 51% and 43%.
Take `CNC(=O)c1sc(-n2cnc3cc(OC)c(OC)cc32)cc1OCc1ccccc1C(F)(F)F`: the inhibition in test [1] is 4%; in test [2] it was 3% and 2%.
In the case of `Fc1cccc(COc2ccc(Nc3ncnc4sc(-c5cccs5)cc34)cc2Cl)c1`, the inhibition in test [1] is -10%; in test [2], -3% and -2%.
Take `CCn1c(-c2nonc2N)nc2c(C#CCN)ncc(OCCCN)c21`: the inhibition in test [1] was -4%; in test [2], 1% and 4%.
With `CCc1cccc(CC)c1/C=C/c1cncc(C(=O)NC)c1`, the inhibition in test [1] was -7%; in test [2], 0% and -2%.
For `CCN1CCC(C(=O)Nc2n[nH]c3nnc(-c4cccc(F)c4F)cc23)CC1`, the inhibition in test [1] was -7%; in test [2] it was -3% and -6%.
On to `CCS(=O)(=O)c1ccc(OC)c(Nc2ncc(-c3cccc(-c4ccccc4F)c3)o2)c1`, for which the inhibition worked out at 79% in test [1] and 13% in test [2].
Turning to `N#Cc1c(NC(=O)c2cccc3ccccc23)sc2c1CCCC2`, the inhibition in test [1] is 78%; in test [2] it was -4% and -3%.
Turning to `NC(=O)c1cccc(Nc2nccc(Nc3cccc(F)c3)n2)c1`, the inhibition in test [1] was 50%; in test [2], 6% and 11%.
Turning to `CS(=O)(=O)CCNCc1ccc(-c2ccc3ncnc(Nc4ccc(OCc5cccc(C(F)(F)F)c5)cc4)c3c2)o1`, the inhibition in test [1] is -2%; in test [2], -3% and -1%.
Take `COc1cc2c(cc1Nc1nc(Nc3ccsc3C(N)=O)c3cc[nH]c3n1)N(C(=O)CN(C)C)CCC2(C)C`: the inhibition was 68% in test [1]; 57% and 54% in test [2].
Regarding `C#Cc1cccc(Nc2ncnc3ccc(OCCCCNCCS(C)(=O)=O)cc23)c1`, the inhibition in test [1] was 6%; in test [2], -4% and 0%.
With `CNC(=O)c1cccc(C#Cc2cncnc2Nc2ccc(OCc3cccc(F)c3)c(Cl)c2)c1`, the inhibition was 61% in test [1]; 6% and 3% in test [2].
As for `Nc1ncc(-c2cccc(S(N)(=O)=O)c2)c2scc(-c3ccc(F)c(Cl)c3)c12`, the figures for the inhibition in test [1] and in test [2] were 3% and 0%, respectively.
`c1cnn2ncc(-c3ccnc(NCCCN4CCOCC4)n3)c2c1`: the inhibition in test [1] was 81%; in test [2], -2% and -4%.
As for `COc1ccc(-c2nn3ncccc3c2-c2ccnc(Nc3cccc(C(F)(F)F)c3)n2)cc1`, the inhibition was 6% in test [1]; -2% and 0% in test [2].
Turning to `Nc1nonc1-c1nc2cnccc2n1C1CCCCC1`, the inhibition is 1% in test [1]; 36% and 37% in test [2].
On to `c1ccc(COc2ccc(Nc3ncnc4ccc(-c5ccco5)cc34)cc2)cc1`, for which the inhibition in test [1] was 99%; in test [2], -3% and -2%.
On to `COc1ccc(-c2ccc3c(NC(=O)C4CC4)n[nH]c3n2)cc1`, for which the inhibition in test [1] is -5%; in test [2], 4% and 5%.
Consider `NS(=O)(=O)c1ccc(N/N=C2\C(=O)Nc3ccc(C(=O)NCCc4c[nH]cn4)cc32)cc1`, for which the inhibition in test [1] was -1%; in test [2], 32% and 29%.
Consider `O=C(Nc1n[nH]c2cc(-c3cc(F)ccc3F)ccc12)C1CC1`, for which the inhibition in test [1] is 6%; in test [2], -4% and -2%.
For the compound `CCn1c(-c2nonc2N)nc2cncc(C(=O)N3CCNCC3)c21`, the inhibition in test [1] was 0%; in test [2], 3% and 0%.
Regarding `O=C(O[C@H]1CN[C@H](C#Cc2cc3ncnc(Nc4ccc(OCc5cccc(F)c5)c(Cl)c4)c3s2)C1)N1CCOCC1`, the inhibition was -3% in test [1]; 1% and 3% in test [2].
Regarding `CC1=C(C(=O)Nc2ccc3[nH]nc(C)c3c2)C(c2ccc(C(F)(F)F)cc2)CC(=O)N1` (stereo unspecified), the inhibition in test [1] was 44%; in test [2], -5% and -3%.
For `CCc1nccc2c1nc(-c1nonc1N)n2CC`, the inhibition in test [1] was -3%; in test [2] it was -2% and 1%.
For `COC(=O)Nc1nc2ccc(Sc3ccc(NC(=O)Nc4cc(C(F)(F)F)ccc4F)cc3)cc2[nH]1`, the inhibition in test [1] was 21%; in test [2], -3%.

For the origin of these results see ChEMBL document CHEMBL2007661, “Compounds: GSK PKIS; Assays: UNC Frye lab” (2012).
